pIC50: −log10 of the molar value. Read-outs that look alike come from different tables or passages of the source.

One assay deals with osteoarthritic rats. The experiment in a line: Osteoarthritic (OA) pain induced by sodium monoiodoacetate (MIA), hind limb grip force. To be noted: Rattus norvegicus, 480 h, rat, 20 days following MIA injection, hind limb grip force, read-out: OA MPE; for inhibition in vivo at 30 mg/kg: OA dose 30 mg/kg; for inhibition in vivo at 10 mg/kg: OA dose 10 mg/kg. Type of assay: in vivo, rat. The procedure:
Osteoarthritic (OA) Pain Induced by Sodium Monoiodoacetate (MIA)
Pain behavior was assessed by measurement of hind limb grip force (GF) in adult osteoarthritic rats. Male Sprague Dawley rats, obtained from Charles River Laboratories, (Wilmington, Mass.), weighing 150-175 g, were injected in the unilateral knee join with a single intra-articular injection of sodium monoiodoacetate (MIA, 3 mg/rat). All rats were tested at 20 days following MIA injection. A behavioral measure of activity-induced pain was carried out. Measurements of the peak hind limb grip force were conducted by recording the maximum compressive force (CFmax), in grams of force, exerted on a hind limb strain gauge setup, in a commercially available grip force measurement system (Columbus Instruments, Columbus, Ohio).
During testing, each rat was gently restrained by grasping it around its rib cage and then allowed to grasp the wire mesh frame attached to the strain gauge. The experimenter then moved the animal in a rostral-to-caudal direction until the grip was broken. Each rat was sequentially tested twice at an approximately 2-3 minute interval to obtain a raw mean grip force (CFmax). This raw mean grip force data was in turn converted to a maximum hindlimb cumulative compressive force (CFmax), as the grams of force/kg of body weight, for each animal.
For evaluating the compound effects, the hind limb grip force was conducted 20 days following the intra-articular injection of MIA. A group of age-matched naïve (not injected with MIA) animals was added as a comparator to the drug-dosed groups. The vehicle control response for each group of MIA-treated animals was defined as the 0% response (0% effect), whereas the naïve control group was defined as the normal response and as 100% effect. The % effect for each dose group was expressed as % return of response to normalcy, compared to the naïve group. A percent maximal possible effect (% MPE) of testing compound was calculated according to the formula: (Treatment CFmax−Vehicle CFmax)/Vehicle CFmax]×100). Higher % effect numbers indicate increased relief from the pain in the model, with 100% indicating a return to the level of response seen in normal (non-osteoarthritic) animals. All experiments evaluating drug effects in this model were conducted in a randomized blinded fashion.
The animals were housed in Association for Assessment and Accreditation of Laboratory Animal Care (AAALAC) approved facilities at AbbVie Inc. in a temperature-regulated environment under a controlled 12-hour light-dark cycle, with lights on at 6:00 a.m. Food and water were available ad libitum at all times except during testing. All testing was done following procedures outlined in protocols approved by AbbVie Inc.'s Institutional Animal Care and Use Committee.

Another assay addresses recombinant human Nav1.7 (Homo sapiens (Human), UniProt Q15858). The experiment in a line: FRET-based membrane potential assay, recombinant human sodium channel Nav1.7. Type of assay: cell-based. The note with it: read-out: FRET-Membrane Potential Nav1.7 IC50. The essentials:
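Channel activation used veratridine at its EC80, set by a dilution curve each experiment, together with Leiurus scorpion venom, added 3 min after compound. Membrane-potential ratio signals from FLIPR Tetra in HEPES-buffered HBSS were fitted to a four-parameter Hill equation for percent inhibition and IC50.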

Where [1] appears, read: HEK293 cells stably expressing recombinant human Nav1.7, veratridine + scorpion venom depolarization.

Sequence of recombinant human Nav1.7 (Q15858 whole entry): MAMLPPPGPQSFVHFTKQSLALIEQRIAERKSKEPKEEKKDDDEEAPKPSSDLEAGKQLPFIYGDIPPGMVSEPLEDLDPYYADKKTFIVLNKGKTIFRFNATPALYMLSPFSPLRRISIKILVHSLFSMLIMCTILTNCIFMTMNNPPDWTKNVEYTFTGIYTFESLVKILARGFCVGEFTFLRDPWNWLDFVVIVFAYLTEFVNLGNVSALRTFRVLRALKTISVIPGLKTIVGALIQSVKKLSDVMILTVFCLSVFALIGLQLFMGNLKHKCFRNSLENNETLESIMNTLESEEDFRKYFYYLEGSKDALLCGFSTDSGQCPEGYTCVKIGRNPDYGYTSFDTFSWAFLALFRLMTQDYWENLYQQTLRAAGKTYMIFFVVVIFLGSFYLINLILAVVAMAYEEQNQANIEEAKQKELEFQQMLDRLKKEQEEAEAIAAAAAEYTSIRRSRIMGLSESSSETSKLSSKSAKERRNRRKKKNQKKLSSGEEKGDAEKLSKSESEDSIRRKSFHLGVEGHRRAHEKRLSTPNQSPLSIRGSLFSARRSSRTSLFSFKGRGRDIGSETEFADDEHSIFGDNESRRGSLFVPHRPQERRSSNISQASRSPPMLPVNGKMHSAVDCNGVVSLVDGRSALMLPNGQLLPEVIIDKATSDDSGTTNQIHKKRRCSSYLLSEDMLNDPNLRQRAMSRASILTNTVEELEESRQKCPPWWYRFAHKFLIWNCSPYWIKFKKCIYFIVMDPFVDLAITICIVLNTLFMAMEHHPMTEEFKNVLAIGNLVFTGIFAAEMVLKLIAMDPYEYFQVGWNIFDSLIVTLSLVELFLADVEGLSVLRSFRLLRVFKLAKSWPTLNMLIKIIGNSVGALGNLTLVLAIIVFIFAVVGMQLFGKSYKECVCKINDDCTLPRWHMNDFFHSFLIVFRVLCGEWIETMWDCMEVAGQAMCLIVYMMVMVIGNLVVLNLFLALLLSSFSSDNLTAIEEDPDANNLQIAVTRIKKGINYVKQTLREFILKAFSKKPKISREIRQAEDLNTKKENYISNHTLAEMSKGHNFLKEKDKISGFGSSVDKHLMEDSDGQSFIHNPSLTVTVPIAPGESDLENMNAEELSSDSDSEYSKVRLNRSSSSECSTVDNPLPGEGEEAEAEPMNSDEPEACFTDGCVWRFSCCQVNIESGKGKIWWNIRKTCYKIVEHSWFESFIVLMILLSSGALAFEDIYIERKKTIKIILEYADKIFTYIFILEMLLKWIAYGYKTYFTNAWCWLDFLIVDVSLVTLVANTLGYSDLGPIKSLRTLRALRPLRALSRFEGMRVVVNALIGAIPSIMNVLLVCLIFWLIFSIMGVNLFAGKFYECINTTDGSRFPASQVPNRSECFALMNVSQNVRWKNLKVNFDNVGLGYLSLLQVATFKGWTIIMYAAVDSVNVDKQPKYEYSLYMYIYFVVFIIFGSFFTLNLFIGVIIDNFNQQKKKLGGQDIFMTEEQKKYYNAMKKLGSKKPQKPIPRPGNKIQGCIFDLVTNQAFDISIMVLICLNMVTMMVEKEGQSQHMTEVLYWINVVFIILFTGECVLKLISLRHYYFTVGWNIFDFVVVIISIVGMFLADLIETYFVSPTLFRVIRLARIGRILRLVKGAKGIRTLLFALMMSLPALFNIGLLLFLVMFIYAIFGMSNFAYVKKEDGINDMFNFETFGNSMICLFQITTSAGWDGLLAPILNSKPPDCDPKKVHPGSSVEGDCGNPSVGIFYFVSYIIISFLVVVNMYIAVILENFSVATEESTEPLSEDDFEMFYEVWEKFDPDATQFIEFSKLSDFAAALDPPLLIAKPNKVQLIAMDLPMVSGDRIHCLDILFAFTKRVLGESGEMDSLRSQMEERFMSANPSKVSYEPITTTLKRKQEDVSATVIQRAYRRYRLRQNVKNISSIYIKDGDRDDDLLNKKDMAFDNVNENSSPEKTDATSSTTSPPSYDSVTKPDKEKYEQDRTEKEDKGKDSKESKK

`O=C(c1ccc2cc(Oc3ccc(C(F)(F)F)cn3)ccc2n1)N1C[C@@H]2C[C@H]1CN2` [Example 3, (1S,4S)-2,5-diazabicyclo[2.2.1]hept-2-yl(6-{[5-(trifluoromethyl)pyridin-2-yl]oxy}quinolin-2-yl)methanone]: the inhibition in vivo at 30 mg/kg with osteoarthritic rats is 46%. In addition, on recombinant human Nav1.7 (setting [1]), the pIC50 is 5.84.
In the case of `O=C(N[C@@H]1CCS(=O)(=O)C1)c1ccc2cc(Oc3ccc(C(F)(F)F)cn3)ccc2n1` [Example 5, N-[(3R)-1,1-dioxidotetrahydrothiophen-3-yl]-6-{[5-(trifluoromethyl)pyridin-2-yl]oxy}quinoline-2-carboxamide], the inhibition in vivo at 30 mg/kg in the assay on osteoarthritic rats turned out to be 27%. Besides, on recombinant human Nav1.7 (setting [1]), the pIC50 was 6.58.
For the molecule `CC(=O)c1ccc(Oc2ccc3nc(C(=O)N4CCNCC4)ccc3c2)cc1` [Example 7, 1-(4-{[2-(piperazin-1-ylcarbonyl)quinolin-6-yl]oxy}phenyl)ethanone], the inhibition in vivo at 30 mg/kg in the assay on osteoarthritic rats came out at 51%.
Consider `NC1CN(C(=O)c2ccc3cc(Oc4ccc(C(F)(F)F)cn4)ccc3n2)C1` [Example 8, (3-aminoazetidin-1-yl)(6-{[5-(trifluoromethyl)pyridin-2-yl]oxy}quinolin-2-yl)methanone], for which the inhibition in vivo at 30 mg/kg in the assay with osteoarthritic rats is 91%. Besides, the pIC50 on recombinant human Nav1.7 (setting [1]) is 6.63.
Turning to `O=C(c1ccc2cc(Oc3ccc(C(F)(F)F)cn3)ccc2n1)N1C[C@@H](O)[C@@H](O)C1` [Example 9, [cis-3,4-dihydroxypyrrolidin-1-yl](6-{[5-(trifluoromethyl)pyridin-2-yl]oxy}quinolin-2-yl)methanone], in the assay with osteoarthritic rats, the inhibition in vivo at 10 mg/kg turned out to be 68%. Besides, on recombinant human Nav1.7 (setting [1]), the pIC50 is 5.68.
`C[C@@H]1CN(C(=O)c2ccc3cc(Oc4ccc(C(F)(F)F)cn4)ccc3n2)CCN1` [Example 12, [(3R)-3-methylpiperazin-1-yl](6-{[5-(trifluoromethyl)pyridin-2-yl]oxy}quinolin-2-yl)methanone]: in the assay with osteoarthritic rats, the inhibition in vivo at 10 mg/kg was found to be 79%. For the same molecule, on recombinant human Nav1.7, the pIC50 is 6.46.
Turning to `C[C@H]1CN(C(=O)c2ccc3cc(Oc4ccc(C(F)(F)F)cn4)ccc3n2)CCN1` [Example 13, [(3S)-3-methylpiperazin-1-yl](6-{[5-(trifluoromethyl)pyridin-2-yl]oxy}quinolin-2-yl)methanone], the inhibition in vivo at 10 mg/kg with osteoarthritic rats came out at 44%. Also, at recombinant human Nav1.7, the pIC50 is 6.34.
`O=C(NC1CCS(=O)(=O)CC1)c1ccc2cc(Oc3ccc(C(F)(F)F)cn3)ccc2n1` [Example 15, N-(1,1-dioxidotetrahydro-2H-thiopyran-4-yl)-6-{[5-(trifluoromethyl)pyridin-2-yl]oxy}quinoline-2-carboxamide]: the inhibition in vivo at 10 mg/kg in the assay on osteoarthritic rats amounted to 52%. Besides, on recombinant human Nav1.7 (setting [1]), the negative-log IC50 (pIC50) is 5.96.
Taken in the same sequence, the figures for `CC[C@@H]1CN(C(=O)c2ccc3cc(Oc4ccc(C(F)(F)F)cn4)ccc3n2)CCN1` [Example 16, [(3R)-3-ethylpiperazin-1-yl](6-{[5-(trifluoromethyl)pyridin-2-yl]oxy}quinolin-2-yl)methanone] were 57% and 6.39.
For `O=C(c1ccc2cc(Oc3ccc(C(F)(F)F)cn3)ccc2n1)N1CCN[C@@H](CO)C1` [Example 17, [(3R)-3-(hydroxymethyl)piperazin-1-yl](6-{[5-(trifluoromethyl)pyridin-2-yl]oxy}quinolin-2-yl)methanone], the inhibition in vivo at 10 mg/kg in the assay on osteoarthritic rats is 19%. Besides, on recombinant human Nav1.7, the pIC50 was 5.51.
Regarding `O=C(NCCN1CCOCC1)c1ccc2cc(Oc3ccc(C(F)(F)F)cn3)ccc2n1` [Example 21, N-[2-(morpholin-4-yl)ethyl]-6-{[5-(trifluoromethyl)pyridin-2-yl]oxy}quinoline-2-carboxamide], the inhibition in vivo at 10 mg/kg in the assay on osteoarthritic rats came out at 35%. Further, at recombinant human Nav1.7 (setting [1]), the negative-log IC50 (pIC50) was 6.28.
As for `CS(=O)(=O)C1CN(C(=O)c2ccc3cc(Oc4ccc(C(F)(F)F)cn4)ccc3n2)C1` [Example 29, [3-(methylsulfonyl)azetidin-1-yl](6-{[5-(trifluoromethyl)pyridin-2-yl]oxy}quinolin-2-yl)methanone], the inhibition in vivo at 10 mg/kg in the assay with osteoarthritic rats turned out to be 20%.
For the molecule `O=C(c1ccc2cc(Oc3ccc(OC(F)(F)F)cn3)ccc2n1)N1CCNCC1` [Example 431, piperazin-1-yl(6-{[5-(trifluoromethoxy)pyridin-2-yl]oxy}quinolin-2-yl)methanone], the inhibition in vivo at 30 mg/kg with osteoarthritic rats was found to be 73%.
As to `O=C1CC(CNC(=O)c2ccc3cc(Oc4ccc(C(F)(F)F)cn4)ccc3n2)CN1` (stereo not shown) [Example 609, N-[(5-oxopyrrolidin-3-yl)methyl]-6-{[5-(trifluoromethyl)pyridin-2-yl]oxy}quinoline-2-carboxamide], the pIC50 at recombinant human Nav1.7 (setting [1]) was 5.35.
On the same count and under the same terms, in the case of `CC(=O)NCC(C)CNC(=O)c1ccc2cc(Oc3ccc(C(F)(F)F)cn3)ccc2n1` (stereo not shown) [Example 610, N-(3-acetamido-2-methylpropyl)-6-{[5-(trifluoromethyl)pyridin-2-yl]oxy}quinoline-2-carboxamide] it was 5.56.
Consider `CN(CCS(C)(=O)=O)C(=O)c1ccc2cc(Oc3ccc(C(F)(F)F)cn3)ccc2n1` [Example 611, N-methyl-N-[2-(methylsulfonyl)ethyl]-6-{[5-(trifluoromethyl)pyridin-2-yl]oxy}quinoline-2-carboxamide], for which, on recombinant human Nav1.7, the pIC50 is 5.30.
Same read-out and setting: in the case of `CS(=O)(=O)CCCCNC(=O)c1ccc2cc(Oc3ccc(C(F)(F)F)cn3)ccc2n1` [Example 612, N-[4-(methylsulfonyl)butyl]-6-{[5-(trifluoromethyl)pyridin-2-yl]oxy}quinoline-2-carboxamide] it was 5.53.
In the case of `CC(=O)NCCCNC(=O)c1ccc2cc(Oc3ccc(C(F)(F)F)cn3)ccc2n1` [Example 613, N-(3-acetamidopropyl)-6-{[5-(trifluoromethyl)pyridin-2-yl]oxy}quinoline-2-carboxamide], the pIC50 on recombinant human Nav1.7 (setting [1]) is 5.66.
As to `O=C1CCC2N1CCCN2C(=O)c1ccc2cc(Oc3ccc(C(F)(F)F)cn3)ccc2n1` (stereo not shown) [Example 614, 1-[(6-{[5-(trifluoromethyl)pyridin-2-yl]oxy}quinolin-2-yl)carbonyl]hexahydropyrrolo[1,2-a]pyrimidin-6(2H)-one], the pIC50 at recombinant human Nav1.7 (setting [1]) was 4.91.
The same measure, in the same setting: the same measure for `O=C(NCCC1CS(=O)(=O)C1)c1ccc2cc(Oc3ccc(C(F)(F)F)cn3)ccc2n1` [Example 615, N-[2-(1,1-dioxidothietan-3-yl)ethyl]-6-{[5-(trifluoromethyl)pyridin-2-yl]oxy}quinoline-2-carboxamide]: 5.63; for `O=C(NC1CC(F)C1)c1ccc2cc(Oc3ccc(C(F)F)cn3)ccc2n1` (stereo not shown) [Example 617, 6-{[5-(difluoromethyl)pyridin-2-yl]oxy}-N-(3-fluorocyclobutyl)quinoline-2-carboxamide]: 5.56.
For `COCC1(F)CCN(C(=O)c2ccc3cc(Oc4ccc(C(F)(F)F)cn4)ccc3n2)CC1` [Example 618, [4-fluoro-4-(methoxymethyl)piperidin-1-yl](6-{[5-(trifluoromethyl)pyridin-2-yl]oxy}quinolin-2-yl)methanone], the pIC50 on recombinant human Nav1.7 was 5.57.
As to “[cis-2,2-dimethyltetrahydro-5H-[1,3]dioxolo[4,5-c]pyrrol-5-yl](6-{[5-(trifluoromethyl)pyridin-2-yl]oxy}quinolin-2-yl)methanone [Example 373]”, the pIC50 at recombinant human Nav1.7 (setting [1]) was 5.43.
Regarding “{2-[(dimethylamino)methyl]morpholin-4-yl}(6-{[5-(trifluoromethyl)pyridin-2-yl]oxy}quinolin-2-yl)methanone [Example 374]”, the pIC50 on recombinant human Nav1.7 (setting [1]) is 6.01.

(Values after patent US9452986B2, “6-heteroaryloxy- or 6-aryloxy-quinoline-2-carboxamides and method of use” (AbbVie Inc., priority 2014, dated 2016).)
